Test system: KPL-3C tumor
Assay: Inhibition of tumor proliferation in vivo, KPL-3C orthotopic transplant
Design: species or system BALB/c nude mouse
Conditions: for Ser39 phosphorylation of PHB2/REA in the tumor: 14 mg/kg; for antitumor effect (tumor volume): E2 6 μg/day, 2 weeks
Method: FIG. 11-1 is a diagram illustrating that the ERAP1-peptide inhibits tumor proliferation in a mouse orthotopically transplanted with human breast cancer. (A) and (B) show the influence of the ERAP1-peptide on the tumor volume. […] were subcutaneously transplanted into the breast fat body of as BALB/c nude mouse. The treatment test (5 individuals/group) was initiated (day 0) when the volume of the tumor in the absence E2 reached about 50-80 mm^3. The ERAP1-peptide (14, 35 and 70 mg/kg), the scramble peptide (14, 35 and 70 mg/kg) or tamoxifen (4 mg/kg) was administered every day by intraperitoneal injection to a cancerous mouse orthotopically transplanted with KPL-3C tumor. At the same time, E2 (6 μg/day) was administered subcutaneously every day.
FIG. 11-3 is a diagram illustrating that the ERAP1-peptide inhibits tumor proliferation in a mouse orthotopically transplanted with human breast cancer. […] The mouse was euthanatized on day 14, and the tumor was removed, and the expression level of the downstream genes in each tumor was obtained by quantitative RT-PCR.
FIG. 11-4 is a diagram illustrating that the ERAP1-peptide inhibits tumor proliferation in a mouse orthotopically transplanted with human breast cancer.
FIG. 27 is a diagram illustrating the inhibition effect of the ERAP1-peptide on tumor proliferation in a mouse orthotopically transplanted with human breast cancer. […] KPL-3 cells were subcutaneously transplanted into the breast fat body of a BALB/c nude mouse. The treatment test (5 individuals/group) was initiated (day 0) when the volume of the tumor reached about 50-80 mm^3 in the absence of E2. To a cancerous mouse orthotopically transplanted with KPL-3C tumor, the ERAP1-peptide (Peptide: 14 mg/kg) or the ERAP1-scramble peptide (scrPeptide: 14 mg/kg) was administered every day by intraperitoneal injection. At the same time, E2 (6 μg/day) was administered subcutaneously every day. On day 14, the mouse was euthanatized, and the tumor was removed, and phosphorylation of PHB2/REA (S39) in each tumor was evaluated with immunoblotting analysis. […] The tamoxifen-resistant MCF7-cells (Tam-R MCF-7) were subcutaneously transplanted into the breast fat body of a BALB/c nude mouse, and the treatment test (5 individuals/group) was initiated (day 0) when the volume of the tumor reached about 50-80 mm^3 in the presence of tamoxifen (37 ng/day, 1.85 μg/kg). To a cancerous mouse orthotopically transplanted with Tam-R MCF-7 tumor, the ERAP1-peptide (Peptide: 3.5, 7 and 14 mg/kg) or the ERAP1-scramble peptide (scrPeptide: 14 mg/kg) was administered every day by intraperitoneal injection. At the same time, E2 (6 μg/day) was administered subcutaneously every day: Tam-R MCF-7 heterotransplanted tumor at day 21 and the mean tumor volume±SE (n=5) are shown. *P<0.05, **P<0.01, ***P<0.001.
KPL-3C cell suspension (1×10^7 cells/mouse) was mixed with the same amount of Matrigel (BD). This mixture was injected into the breast fat body of 6 weeks old female BALB/c nude mouse (CLEA Japan, Tokyo, Japan). The mouse was kept in a sterile isolated facility with a cycle of 12 hour light period/12 hour dark period, and freely fed with rodent food and water. The tumor was grown over 1 week until the size thereof reached 50 to 80 mm^3 (calculated as ½×(width×length^2)). Then, the mice were randomly divided into nine treatment groups (5 individuals/group): no treatment group, 6 μg/day E2 treatment group, E2+0.28 mg/day ERAP1-peptide treatment group, E2+0.7 mg/day ERAP1-peptide treatment group, E2+1.4 mg/day ERAP1-peptide treatment group, E2+0.28 mg/day of the scramble peptide treatment group, E2+0.7 mg/day of the scramble peptide treatment group, E2+1.4 mg/day of the scramble peptide treatment group, and E2+83 μg/day tamoxifen treatment group. The mouse was treated every day with 6 μg/day E2 solution (100 μl 2.2×10^−4 M) on the neck skin. […]

[1] = 14, 35, 70 mg/kg intraperitoneal every day

Compound: CSCC[C@H](NC(=O)[C@H](CCC(N)=O)NC(=O)[C@H](CCCNC(=N)N)NC(=O)[C@H](CCCNC(=N)N)NC(=O)[C@H](CCCNC(=N)N)NC(=O)[C@H](CCCNC(=N)N)NC(=O)[C@H](CCCNC(=N)N)NC(=O)[C@H](CCCNC(=N)N)NC(=O)[C@H](CCCNC(=N)N)NC(=O)[C@H](CCCNC(=N)N)NC(=O)[C@H](CCCNC(=N)N)NC(=O)[C@H](CCCNC(=N)N)NC(=O)[C@@H](N)CCCNC(=N)N)C(=O)N[C@@H](CC(C)C)C(=O)N[C@@H](CO)C(=O)N[C@@H](CC(=O)O)C(=O)N[C@@H](CC(C)C)C(=O)N[C@H](C(=O)N[C@@H](CC(C)C)C(=O)N[C@@H](CCC(N)=O)C(=O)N[C@@H](CC(C)C)C(=O)N[C@@H](CCCNC(=N)N)C(=O)N[C@@H](CCC(N)=O)C(=O)N[C@@H](CCCNC(=N)N)C(=O)O)[C@@H](C)O [ERAP1-peptide]
- Ser39 phosphorylation of PHB2/REA in the tumor (tumor removed day 14): phosphorylation of Ser39 of PHB21/REA was confirmed
- change of the body weight [1]: change of the body weight was not recognized
- antitumor effect (tumor volume) [1]: the antitumor effect was recognized
- expressions of ERα target genes PS2, cyclin D1, C-Myc, SP-1 in the tumor (tumor removed day 14): completely suppressed
- phosphorylations of Akt and MAPK in the tumor (tumor removed day 14): suppression for the phosphorylations of the non-genomic activation signal routes, i.e., Akt and MAPK, was also confirmed

Compound: DRQLQLSTLQRML (SEQ ID NO: 28) (ERAP1-scramble peptide) [reference compound]
- Ser39 phosphorylation of PHB2/REA in the tumor (tumor removed day 14): the phosphorylation of PHB2/REA was not recognized
- antitumor effect (tumor volume) [1]: significant tumor suppression effect was not recognized in any of the doses
- expressions of ERα target genes PS2, cyclin D1, C-Myc, SP-1 in the tumor (tumor removed day 14): suppression for the expression was not recognized
